Data reported in patent US5001149A, “Azadirachtin derivative insecticides” (NPI, priority 1987, dated 1991).
≈ marks a conversion by molar mass, not a printed value. Entries after “also recorded” stand apart in the source; their conditions may differ. Read-outs that look alike come from different tables or passages of the source.

Assays:
[1] = test system: first-instar Heliothis virescens larvae; assay: Mortality and growth inhibition in first-instar Heliothis virescens larvae fed in an artificial diet; assay type: in vivo; conditions: for EC50 (concentration causing 50% growth inhibition): first-instar larvae, artificial diet, in parentheses 95% confidence limits; for LC50 (concentration causing 50% mortality): heliothis virescens, in vivo; for LC50 (concentration causing 50% mortality) / LC50: po; for LC50: Heliothis virescens, read-out: LC50 (concentration causing 50% mortality)
Description: Mortality and growth inhibition in first-instar Heliothis
virescens larvae fed azadirachtin and eight derivatives in an
^b LC50 values are the concentrations (ppm) causing 50%
^c EC50 values are the concentrations (PPM) causing 50% growth
^d Numbers in parentheses are the 95% confidence limits determined
using the methods of Litchfield and Wilcoxon, J. Pharmacol. Exp. Ther.

[2] = test system: fifth-instar Heliothis virescens larvae; assay: Pupal and adult development of fifth-instar larvae injected orally with non-irradiated compounds; assay type: in vivo; conditions: for mortality at 0.001 mg: Heliothis virescens, light or radiation study, po, read-out: % Mortality Prior to Adult Stage
Method: (§1) Individual larvae were injected per os on the first day of the fifth instar with 1.0 μg of one of the either irradiated or non-irradiated compounds dissolved in 1.0 μl of 75% aqueous ethanol.
Successful and unsuccessful pupal and adult development of fifthinstar
Heliothis Virescens larvae injected orally with 1.0 microgram of either
azadirachtin, 3deacetylazadirachtin, 22,23dihydroazadirachtin, or
2',3',22,23tetrahydroazadirachtin.

[3] = test system: fifth-instar Heliothis virescens larvae; assay: Relative activity of UV-irradiated compounds in inhibiting pupal development (pupation); assay type: in vivo; conditions: for Relative activity, inhibiting pupal development: relative to non-irradiated
Method: (§2) Azadirachtin and its derivatives listed above (1.0 mg/ml absolute ethanol) were placed individually in capped quartz NMR tubes (5×180 mm) and were irradiated with two UV germicidal lights (GE, G30T8, 200-280 nm, 30 W) 1.8 m from the source at room temperature for up to 400 h. The controls were identical samples protected from exposure to UV radiation by wrapping with aluminum foil. At selected time intervals, aliquots from both the controls (non-irradiated) and irradiated samples were removed for high-performance liquid chromatography (HPLC) analysis (vide infra) and bioassay.
as §1
(§3) Relative activity of azadirachtin, 3deacetylazadirachtin,
22,23dihydroazadirachtin, and 2',3',22,23tetrahydroazadirachtin, all of
which had been exposed for 15, 30, 90, 200, and 400 hours to UV radiation
inhibiting the pupal development of fifthinstar Heliothis virescens
(§4) larvae. Relative activity is defined as the percentage of larvae injected

[4] = test system: fifth-instar Heliothis virescens larvae; assay: Relative activity of UV-irradiated compounds in inhibiting adult development; assay type: in vivo; conditions: for Relative activity, inhibiting adult development: relative to non-irradiated
Method: as §2, §1, §3
22,23dihydroazadirachtin, 2',3',22,23tetrahydroazadirachtin, all of which
had been exposed for 15, 30, 90, 200, and 400 hours to UV radiation, in
inhibiting the adult development of fifthinstar Heliothis virescens
as §4
relative to the percentage injected with its nonirradiated counterpart

[5] = Stability to UV irradiation by reversed phase HPLC; assay type: physicochemical; conditions: for half-life / degraded at 90 h: absolute ethanol
Method: Stability of Azadirachtin derivatives was determined as follows:
as §2
Analytical reversed phase HPLC was performed on a phenyl (5 μm) column run isocratically with acetonitrile-water (3:7) (Yamasaki et al.) Peaks were detected at 214 nm. The irradiated samples were compared with their corresponding non-UV-irradiated controls by measuring the height of the peak eluting at the appropriate Rt for each irradiated compound relative to each one's non-irradiated control. Results are expressed as the percent of the initial sample concentration remaining relative to the control. Each time point was done in at least triplicate fashion.

insects [6] = assay: Antifeedant function; conditions: in vivo
insects [7] = conditions: Kubo & Klocke and other literature; cited from earlier work
insect = conditions: Kubo & Klocke; cited from earlier work
[8] = 1.0 microgram per os, fifth instar, non-irradiated
[9] = 1.0 microgram per os, non-irradiated

| Compound | EC50 (concentration causing 50% growth inhibition) [1] | LC50 (concentration causing 50% mortality) [1] | LC50 [1] [µg/mL] | Number Unsuccessful Larvae-Pupae [2, 8] | Number Unsuccessful Pupae-Adult [2, 8] | inhibition of pupation, in words [2, 9] | mortality at 0.001 mg [2] [%] | Relative activity, inhibiting pupal development ([3]; 15 h UV) [%] | Relative activity, inhibiting pupal development ([3]; 30 h UV) [%] | activity retained, in words ([3]; 90 h UV) | Relative activity, inhibiting pupal development ([3]; 90 h UV) [%] | ability to inhibit pupation, in words ([3]; 200 h UV) | Relative activity, inhibiting pupal development ([3]; 200 h UV) [%] | ability to inhibit pupation, in words ([3]; 400 h UV) | Relative activity, inhibiting pupal development ([3]; 400 h UV) [%] | Relative activity, inhibiting adult development ([4]; 15 h UV) [%] | Relative activity, inhibiting adult development ([4]; 30 h UV) [%] | Relative activity, inhibiting adult development ([4]; 90 h UV) [%] | Relative activity, inhibiting adult development ([4]; 200 h UV) [%] | Relative activity, inhibiting adult development ([4]; 400 h UV) [%] | also measured |
| --- | --- | --- | --- | --- | --- | --- | --- | --- | --- | --- | --- | --- | --- | --- | --- | --- | --- | --- | --- | --- | --- |
| 13,20-O, O-dicarbomethoxy-22,23-dihydroazadirachtin [Compound 6] | 29.0 (20.3-41.5) ppm | 90.0 (37.8-214.5) ppm | – | – | – | – | – | – | – | – | – | – | – | – | – | – | – | – | – | – | – |
| 13-O-methylazadirachtin [Compound 5] | 5.00 (1.54-16.25) ppm | 25.0 (12.2-51.4) ppm | – | – | – | – | – | – | – | – | – | – | – | – | – | – | – | – | – | – | – |
| 13O-acetylazadirachtin [Compound 4] | 0.18 (0.08-0.40) ppm | 0.95 (0.59-1.54) ppm | – | – | – | – | – | – | – | – | – | – | – | – | – | – | – | – | – | – | – |
| C/C=C(\C)C(=O)O[C@H]1C[C@@H](OC(C)=O)[C@@]2(C(=O)OC)CO[C@H]3[C@@H](O)[C@@](C)([C@]45O[C@@]4(C)[C@H]4C[C@@H]5O[C@@H]5OC=C[C@@]54O)[C@H]4[C@]1(CO[C@]4(O)C(=O)OC)[C@@H]32 [Compound 1, azadirachtin] | 0.07 (0.05-0.10) ppm | – | 0.8 (≈ 1.11 µM) | 5 | 0 | equally effective in inhibiting pupation | 98.7 | 98.6 | 98.9 | retained full activity | 85.7 | did decline | 74.2 | An even greater decline | 60.0 | 101.3 | 101.3 | 97.3 | 89.7 | 81.1 | Adults Deformed, % [2, 8]: 0.7%; Adults, % [2, 8]: 1.3%; Number Adults [2, 8]: 2; Number Adults Deformed [2, 8]: 1; Number Pupae [2, 8]: 10; Pupae, % [2, 8]: 6.7%; Unsuccessful Larvae-Pupae, % [2, 8]: 3.4%; Unsuccessful Pupae-Adult, % [2, 8]: 0%; activity retained ([3]; 400 h UV): approximately 50%; ability to inhibit pupation, in words ([3]; up to 90 h UV): not appreciably reduced; ability to inhibit larvae from reaching the adult stage, in words ([4]; 200 h UV): declined slightly; degradation, in words ([5]; 400 h UV): none of the three compounds remained in their original state; half-life ([5]; UV 200-280 nm, room temperature, read-out: T1/2 of UV degradation (converted)): 25 h; UV stability, in words ([5]; UV exposure up to 400 h): UV-labile; reaction order of UV degradation, in words ([5]; UV irradiation): degraded in a first-order reaction; degraded at 90 h ([5]; 90 h UV, read-out: compound degraded): > 80%; antifeedant function, in words (insects [6]): function as antifeedants; ecdysis inhibitory activity, in words (insects [7]): potent ecdysis inhibitory activity; also recorded: the same ecdysis inhibitory activity |
| C/C=C(\C)C(=O)OC1CC(O)C2(C(=O)OC)COC3C2C12COC(O)(C(=O)OC)C2C(C)(C12OC1(C)C1CC2OC2OC=CC21O)C3O (stereo not shown) [Compound 2, 3-deacetylazadirachtin] | – | – | 0.37 (≈ 0.545 µM) | 13 | 4 | less effective | 94.1 | 115.2 | 135.0 | retained full activity | 139.5 | did decline | 86.8 | An even greater decline | 41.0 | 103.2 | 106.3 | 106.3 | 96.0 | 72.3 | activity retained ([3]; 400 h UV): approximately 50%; ability to inhibit pupation, in words ([3]; up to 90 h UV): not appreciably reduced; ability to inhibit larvae from reaching the adult stage, in words ([4]; 200 h UV): remained substantially unchanged until 400 h of irradiation; degradation, in words [5]: none of the three compounds remained in their original state; reaction order of UV degradation, in words [5]: degraded in a first-order reaction; degraded at 90 h ([5]; uv): > 80%; half-life ([5]; uv): 25 h |
| C/C=C(\C)C(=O)OC1CC(OC(C)=O)C2(C(=O)OC)COC3C2C12COC(O)(C(=O)OC)C2C(C)(C12OC1(C)C1CC2OC2OCCC21O)C3O (stereo not shown) [Compound 3, 22,23-dihydroazadirachtin] | – | – | 0.47 (≈ 0.65 µM) | 13 | 4 | less effective | 96.6 | 113.1 | 104.6 | retained full activity | 100.0 | did decline | 72.7 | An even greater decline | 49.1 | 103.5 | 100.1 | 103.5 | 69.0 | 74.5 | activity retained ([3]; 400 h UV): approximately 50%; ability to inhibit pupation, in words ([3]; up to 90 h UV): not appreciably reduced; ability to inhibit larvae from reaching the adult stage, in words ([4]; 200 h UV): more so; degradation, in words [5]: none of the three compounds remained in their original state; reaction order of UV degradation, in words [5]: degraded in a first-order reaction; degraded at 90 h ([5]; uv): > 80%; half-life ([5]; uv): 25 h |
| COC(=O)C1(O)OCC23C(O)CC(OC(C)=O)C4(C(=O)OC)COC(C42)C(O)C(C)(C24OC2(C)C2CC4OC4OCCC42O)C13 (stereo not shown) [Compound 7, 1-detigloyl-22,23dihydroazadirachtin] | – | – | 2.4 (≈ 3.75 µM) | – | – | – | – | – | – | – | – | – | – | – | – | – | – | – | – | – | – |
| CCC(C)C(=O)OC1CC(OC(C)=O)C2(C(=O)OC)COC3C2C12COC(O)(C(=O)OC)C2C(C)(C12OC1(C)C1CC2OC2OCCC21O)C3O (stereo not shown) [Compound 8, 2',3',22,23-tetrahydroazadirachtin] | – | – | 0.3 (≈ 0.414 µM) | 6 | 1 | equally effective in inhibiting pupation | 100 | 99.4 | 103.7 | – | 99.7 | most active in inhibiting pupation | 108.0 | its activity declined after 400 h of exposure, it was still more active than the other test compounds | 69.1 | 100.0 | 100.0 | 100.0 | 100.0 | 100.0 | growth inhibitory and lethal activity, in words ([1]; relative to azadirachtin): retaining full activity; also recorded: fully active; Number Pupae [2, 8]: 10; loss in activity with degradation, in words ([3]; 400 h UV): some loss in activity; ability to inhibit larvae from reaching the adult stage, in words ([4]; 400 h UV): fully active after 400 h of irradiation |
| COC(=O)C1(O)OCC23C(OC(=O)C(C)(O)C(C)O)CC(OC(C)=O)C4(C(=O)OC)COC(C42)C(O)C(C)(C24OC2(C)C2CC4OC4OCCC42O)C13 (stereo not shown) [Compound 9, 2',3'-dihydroxy-2',3'22,23-tetrahydroazadirachtin] | – | – | 42 (≈ 55.5 µM) | – | – | – | – | – | – | – | – | – | – | – | – | – | – | – | – | – | – |
| C/C=C(\C)C(=O)O[C@@H]1C[C@H](O)[C@]23CO[C@H](C(=O)OC)[C@H]2[C@](C)([C@]24O[C@@]2(C)[C@H]2C[C@@H]4O[C@@H]4OC=C[C@@]42O)[C@H](O)[C@@H]2OC[C@@]1(C(=O)OC)[C@H]23 [deacetylazadirachtinol] | – | – | – | – | – | – | – | – | – | – | – | – | – | – | – | – | – | – | – | – | ecdysis inhibitory activity, in words (insects [7]): the same ecdysis inhibitory activity; fold less active than azadirachtin as insect growth inhibitor (insect): about 2.5 fold |
